Source: ChEMBL document CHEMBL1146712, “Synthesis and biological evaluation of [4-(2-phenylethenesulfonylmethyl)phenyl]-quinazolin-4-yl-amines as orally active anti-cancer agents” (2004)

What was measured:
OVCAR-8 = experiment: Concentration required to inhibit growth of human ovarian (OVCAR8) cell line; format: functional
PC-3 = experiment: Concentration required to inhibit growth of human prostate (PC3) cell line; format: functional
DU-145 = experiment: In vitro inhibition of DU145 (human prostate cancer) cell growth.; format: functional
SW-620 = experiment: Concentration required to inhibit growth of human colon (SW620) cell line; format: functional
UACC-62 = experiment: Concentration required to inhibit growth of human melanoma (UACC62) cell line; format: functional
NCI-H522 (Homo sapiens) = experiment: Concentration required to inhibit growth of human lung (H522) cell line
U-251 = experiment: Concentration required to inhibit growth of human CNS (U251) cell line; format: functional
HT-29 = experiment: Concentration required to inhibit growth of human colon (HT-29) cell line; format: functional
MCF7 = experiment: Concentration required to inhibit growth of human breast (MCF-7) cell line; format: functional
NCI/ADR-RES = experiment: in vitro inhibition of MCF-7/ADR (human breast cancer) cell growth.; format: functional
ACHN = experiment: Concentration required to inhibit growth of human renal (ACHN) cell line; format: functional
SK-OV-3 = experiment: Concentration required to inhibit growth of human ovarian (SK-OV3) cell line; format: functional
Mus musculus [1] = experiment: Anticancer activity after implantation of HT-29 human adeno carcinoma xenograft in mice at a dose of 300 mg/kg; 0/6; format: functional
Mus musculus [2] = experiment: (§1) Anticancer activity after implantation of HT-29 human adeno carcinoma xenograft in mice at a dose of 300 mg/kg; format: functional
Mus musculus [3] = experiment: as §1; format: functional; design: reference not given here

Structure (SMILES)	GI50 (OVCAR-8) [µM]	GI50 (PC-3) [µM]	GI50 (DU-145) [µM]	GI50 (SW-620) [µM]	GI50 (UACC-62) [µM]	GI50 (NCI-H522 (Homo sapiens)) [µM]	GI50 (U-251) [µM]	GI50 (HT-29) [µM]	GI50 (MCF7) [µM]	GI50 (NCI/ADR-RES) [µM]	GI50 (ACHN) [µM]	GI50 (SK-OV-3) [µM]	Mortality (Mus musculus [1])	inhibition in vivo at 300 mg/kg (Mus musculus [2]) [%]	Mean body weight (Mus musculus [3]) [%]
O=S(=O)(/C=C/c1ccc(O)cc1)Cc1ccc(Nc2ncnc3ccc(Br)cc23)cc1	> 100	42	3	94	28	27	> 100	9	32	–	–	–	–	–	–
O=S(=O)(/C=C/c1ccccc1)Cc1ccc(Nc2ncnc3ccccc23)cc1	> 100	> 100	2	> 100	> 100	> 100	> 100	> 100	74	> 100	58	5	–	–	–
COc1cc2ncnc(Nc3ccc(CS(=O)(=O)/C=C/c4ccc(Br)cc4)cc3)c2cc1OC	6	9.5	–	5	63	8	11	24	32	72	4	50	–	–	–
COc1cc2ncnc(Nc3ccc(CS(=O)(=O)/C=C/c4ccc(F)cc4)cc3)c2cc1OCCN1CCOCC1	48	100	–	100	100	100	100	100	100	–	66	36	–	–	–
O=S(=O)(/C=C/c1ccc(C(F)(F)F)cc1F)Cc1ccc(Nc2ncnc3ccc(Br)cc23)cc1	15	58	–	55	22	40	30	100	32	85	16	5	–	–	–
O=S(=O)(/C=C/c1ccc(F)cc1F)Cc1ccc(Nc2ncnc3cc(Cl)ccc23)cc1	> 100	> 100	> 100	> 100	> 100	> 100	> 100	> 100	> 100	> 100	> 100	> 100	–	–	–
N#Cc1ccc(/C=C/S(=O)(=O)Cc2ccc(Nc3ncnc4ccccc34)cc2)cc1	> 100	> 100	> 100	> 100	> 100	> 100	> 100	> 100	> 100	> 100	> 100	> 100	–	–	–
O=S(=O)(/C=C/c1ccc(Cl)cc1)Cc1ccc(Nc2ncnc3ccc(Br)cc23)cc1	3	2	1	45	15	13	30	> 100	46	–	–	–	–	–	–
O=S(=O)(/C=C/c1ccc(F)cc1Cl)Cc1ccc(Nc2ncnc3cc(Cl)ccc23)cc1	> 100	73	37	> 100	72	–	2	> 100	15	> 100	17	> 100	–	–	–
O=S(=O)(/C=C/c1ccc(Cl)c(Cl)c1)Cc1ccc(Nc2ncnc3ccccc23)cc1	14	35	–	41	21	32	11	11	28	22	28	22	–	–	–
O=S(=O)(/C=C/c1ccc(C(F)(F)F)cc1F)Cc1ccc(Nc2ncnc3ccccc23)cc1	100	100	–	100	100	100	100	100	100	100	100	39	–	–	–
O=S(=O)(/C=C/c1ccc(F)cc1)Cc1ccc(Nc2ncnc3ccccc23)cc1	2	1	0.3	100	5	13	0.01	1	16	–	0.01	2	0	84	5
O=S(=O)(/C=C/c1ccc(Br)cc1)Cc1ccc(Nc2ncnc3ccccc23)cc1	38	42	55	> 100	> 100	> 100	> 100	> 100	91	> 100	0.2	1	–	–	–
